Assay results as given in ChEMBL document CHEMBL5291721, “A preclinical secondary pharmacology resource illuminates target-adverse drug reaction associations of marketed drugs” (Nat Commun, 2023).
Values joined by “and” are separate entries in the source; they are usually repeats but may differ in a detail not shown here. Identical values can stand only once.

Legend:
[1] = target: Sodium-dependent noradrenaline transporter (Homo sapiens, UniProt P23975)
[2] = target: T1, Gastrin/cholecystokinin type B receptor (Homo sapiens, UniProt P32239)
T1 sequence (P32239 whole entry): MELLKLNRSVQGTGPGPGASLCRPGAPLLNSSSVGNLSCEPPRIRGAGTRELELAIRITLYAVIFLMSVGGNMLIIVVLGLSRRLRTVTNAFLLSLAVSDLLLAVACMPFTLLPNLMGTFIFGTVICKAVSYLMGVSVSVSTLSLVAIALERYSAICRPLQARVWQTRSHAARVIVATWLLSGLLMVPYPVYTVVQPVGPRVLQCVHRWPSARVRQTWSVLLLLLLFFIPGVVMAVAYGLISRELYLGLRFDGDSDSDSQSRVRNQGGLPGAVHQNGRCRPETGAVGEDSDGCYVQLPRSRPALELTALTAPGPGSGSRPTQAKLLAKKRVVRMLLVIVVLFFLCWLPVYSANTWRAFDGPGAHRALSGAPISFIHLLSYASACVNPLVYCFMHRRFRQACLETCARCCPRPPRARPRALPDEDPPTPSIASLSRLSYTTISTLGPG

Vasopressin V1a receptor = Vasopressin V1a receptor (Homo sapiens, UniProt P37288)
[3] = target: T2, Muscarinic acetylcholine receptor M2 (Homo sapiens, UniProt P08172); type: functional, cell-based
T2 sequence (P08172 whole entry): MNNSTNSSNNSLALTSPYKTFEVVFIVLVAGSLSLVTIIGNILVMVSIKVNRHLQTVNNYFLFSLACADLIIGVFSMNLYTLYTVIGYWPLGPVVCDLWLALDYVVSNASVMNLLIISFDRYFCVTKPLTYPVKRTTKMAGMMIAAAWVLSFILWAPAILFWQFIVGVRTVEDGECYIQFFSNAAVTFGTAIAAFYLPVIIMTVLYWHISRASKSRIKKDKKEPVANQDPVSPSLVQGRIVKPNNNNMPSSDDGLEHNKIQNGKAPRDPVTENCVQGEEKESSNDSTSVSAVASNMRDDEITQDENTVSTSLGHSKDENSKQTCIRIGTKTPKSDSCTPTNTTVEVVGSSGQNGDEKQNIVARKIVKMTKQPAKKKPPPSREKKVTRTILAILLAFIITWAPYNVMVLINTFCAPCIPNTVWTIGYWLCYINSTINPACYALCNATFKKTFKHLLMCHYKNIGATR

[4] = target: Gamma-aminobutyric acid receptor subunit alpha-1 (Rattus norvegicus, UniProt P62813)
Thromboxane A2 receptor = target: T3, Thromboxane A2 receptor (Homo sapiens, UniProt P21731)
T3 sequence (P21731 whole entry): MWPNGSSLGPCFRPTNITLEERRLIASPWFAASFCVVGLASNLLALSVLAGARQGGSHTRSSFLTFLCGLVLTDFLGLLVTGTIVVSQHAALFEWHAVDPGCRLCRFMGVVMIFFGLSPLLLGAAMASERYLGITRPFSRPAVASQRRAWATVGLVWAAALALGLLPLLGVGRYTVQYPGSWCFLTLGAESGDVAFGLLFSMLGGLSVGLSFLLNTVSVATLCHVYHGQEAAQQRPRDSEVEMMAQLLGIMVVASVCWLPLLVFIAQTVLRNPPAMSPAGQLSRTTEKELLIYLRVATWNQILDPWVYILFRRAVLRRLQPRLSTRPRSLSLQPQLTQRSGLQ

[5] = target: 5-hydroxytryptamine receptor 2B (Homo sapiens, UniProt P41595); type: functional, cell-based
[6] = target: Growth hormone secretagogue receptor type 1 (Homo sapiens, UniProt Q92847)
[7] = target: Sodium-dependent dopamine transporter (Homo sapiens, UniProt Q01959)
[8] = target: T4, Equilibrative nucleoside transporter 1 (Homo sapiens, UniProt Q99808)
T4 sequence (Q99808 whole entry): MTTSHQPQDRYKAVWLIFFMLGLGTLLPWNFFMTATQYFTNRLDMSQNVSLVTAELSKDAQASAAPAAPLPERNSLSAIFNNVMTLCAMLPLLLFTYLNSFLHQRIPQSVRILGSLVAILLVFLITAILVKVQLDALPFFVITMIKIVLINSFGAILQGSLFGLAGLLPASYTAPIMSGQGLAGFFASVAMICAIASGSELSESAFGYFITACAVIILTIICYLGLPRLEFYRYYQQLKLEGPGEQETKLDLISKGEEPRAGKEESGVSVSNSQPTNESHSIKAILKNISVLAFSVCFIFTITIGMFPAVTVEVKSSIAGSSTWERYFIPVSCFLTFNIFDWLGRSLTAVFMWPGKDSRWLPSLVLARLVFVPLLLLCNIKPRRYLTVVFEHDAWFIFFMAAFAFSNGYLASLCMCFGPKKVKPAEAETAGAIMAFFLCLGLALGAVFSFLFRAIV

Glucocorticoid receptor = target: T5, Glucocorticoid receptor (Homo sapiens, UniProt P04150)
T5 sequence (P04150 whole entry): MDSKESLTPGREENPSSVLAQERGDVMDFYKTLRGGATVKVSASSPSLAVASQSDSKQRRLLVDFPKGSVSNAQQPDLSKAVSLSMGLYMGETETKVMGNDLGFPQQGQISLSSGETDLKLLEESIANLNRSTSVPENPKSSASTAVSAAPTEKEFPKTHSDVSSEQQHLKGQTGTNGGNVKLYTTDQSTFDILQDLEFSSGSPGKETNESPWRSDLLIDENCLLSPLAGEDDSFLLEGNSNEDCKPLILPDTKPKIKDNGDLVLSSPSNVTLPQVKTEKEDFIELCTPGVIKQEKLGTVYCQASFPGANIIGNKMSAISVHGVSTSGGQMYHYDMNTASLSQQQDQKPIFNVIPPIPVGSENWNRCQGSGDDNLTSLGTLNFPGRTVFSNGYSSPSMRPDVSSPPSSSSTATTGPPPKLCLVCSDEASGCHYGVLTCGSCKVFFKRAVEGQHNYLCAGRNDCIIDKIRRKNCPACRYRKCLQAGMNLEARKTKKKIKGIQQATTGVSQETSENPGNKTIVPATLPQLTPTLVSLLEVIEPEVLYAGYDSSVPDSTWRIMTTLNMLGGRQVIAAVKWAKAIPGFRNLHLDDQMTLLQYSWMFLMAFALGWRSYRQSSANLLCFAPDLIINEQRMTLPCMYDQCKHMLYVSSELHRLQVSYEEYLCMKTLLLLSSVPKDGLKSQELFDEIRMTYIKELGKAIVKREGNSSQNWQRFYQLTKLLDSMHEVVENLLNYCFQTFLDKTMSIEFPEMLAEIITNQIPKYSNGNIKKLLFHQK

[9] = target: Beta-2 adrenergic receptor (Homo sapiens, UniProt P07550)
Note: assay procedure not described here.

Sequence of Vasopressin V1a receptor (P37288 whole entry): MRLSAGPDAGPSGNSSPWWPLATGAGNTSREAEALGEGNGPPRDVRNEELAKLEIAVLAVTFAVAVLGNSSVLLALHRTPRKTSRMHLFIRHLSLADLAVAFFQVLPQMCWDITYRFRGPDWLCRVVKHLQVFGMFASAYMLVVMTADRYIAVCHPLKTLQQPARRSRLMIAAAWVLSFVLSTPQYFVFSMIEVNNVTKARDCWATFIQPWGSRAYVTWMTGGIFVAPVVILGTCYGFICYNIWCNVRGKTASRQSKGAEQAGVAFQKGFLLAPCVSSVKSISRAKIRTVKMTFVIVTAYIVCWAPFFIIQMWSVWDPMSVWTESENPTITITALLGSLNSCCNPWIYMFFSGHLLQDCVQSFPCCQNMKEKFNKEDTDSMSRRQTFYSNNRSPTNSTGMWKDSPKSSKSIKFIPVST
Sequence of Growth hormone secretagogue receptor type 1 (Q92847 whole entry): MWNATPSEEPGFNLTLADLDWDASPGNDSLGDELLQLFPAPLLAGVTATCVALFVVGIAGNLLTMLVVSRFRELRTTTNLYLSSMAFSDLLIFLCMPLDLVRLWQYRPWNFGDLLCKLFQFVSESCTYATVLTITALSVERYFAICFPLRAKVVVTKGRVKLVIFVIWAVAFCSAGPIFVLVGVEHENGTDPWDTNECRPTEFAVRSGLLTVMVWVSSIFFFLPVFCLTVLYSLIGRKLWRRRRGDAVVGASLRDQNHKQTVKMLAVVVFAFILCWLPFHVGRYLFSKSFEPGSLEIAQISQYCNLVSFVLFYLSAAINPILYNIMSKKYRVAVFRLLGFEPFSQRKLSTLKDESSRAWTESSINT
Sequence of 5-hydroxytryptamine receptor 2B (P41595 whole entry): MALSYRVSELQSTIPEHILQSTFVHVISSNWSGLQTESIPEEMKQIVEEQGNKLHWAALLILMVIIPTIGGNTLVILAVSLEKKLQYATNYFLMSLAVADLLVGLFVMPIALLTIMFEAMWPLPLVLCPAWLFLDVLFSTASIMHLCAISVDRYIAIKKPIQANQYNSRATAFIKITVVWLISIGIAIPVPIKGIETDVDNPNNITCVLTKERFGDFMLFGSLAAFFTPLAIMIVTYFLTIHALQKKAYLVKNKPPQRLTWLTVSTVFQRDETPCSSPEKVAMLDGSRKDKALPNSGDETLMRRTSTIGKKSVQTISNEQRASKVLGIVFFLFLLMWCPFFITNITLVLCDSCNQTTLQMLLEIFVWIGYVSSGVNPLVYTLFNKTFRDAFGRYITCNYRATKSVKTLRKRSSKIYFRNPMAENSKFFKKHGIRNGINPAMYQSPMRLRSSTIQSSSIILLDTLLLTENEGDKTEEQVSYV
Sequence of Gamma-aminobutyric acid receptor subunit alpha-1 (P62813 whole entry): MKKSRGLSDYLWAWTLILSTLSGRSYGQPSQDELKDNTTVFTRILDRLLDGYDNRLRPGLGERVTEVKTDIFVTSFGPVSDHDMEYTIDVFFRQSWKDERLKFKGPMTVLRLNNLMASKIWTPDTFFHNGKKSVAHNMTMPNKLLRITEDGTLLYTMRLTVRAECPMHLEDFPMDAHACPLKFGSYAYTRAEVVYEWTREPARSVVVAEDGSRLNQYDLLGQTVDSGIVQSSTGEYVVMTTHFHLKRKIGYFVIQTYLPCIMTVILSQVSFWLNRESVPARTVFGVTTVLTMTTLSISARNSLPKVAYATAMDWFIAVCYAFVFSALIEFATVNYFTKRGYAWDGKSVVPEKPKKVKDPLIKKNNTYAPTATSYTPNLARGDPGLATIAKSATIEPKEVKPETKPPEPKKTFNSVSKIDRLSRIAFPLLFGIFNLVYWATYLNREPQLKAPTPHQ
Sequence of Beta-2 adrenergic receptor (P07550 whole entry): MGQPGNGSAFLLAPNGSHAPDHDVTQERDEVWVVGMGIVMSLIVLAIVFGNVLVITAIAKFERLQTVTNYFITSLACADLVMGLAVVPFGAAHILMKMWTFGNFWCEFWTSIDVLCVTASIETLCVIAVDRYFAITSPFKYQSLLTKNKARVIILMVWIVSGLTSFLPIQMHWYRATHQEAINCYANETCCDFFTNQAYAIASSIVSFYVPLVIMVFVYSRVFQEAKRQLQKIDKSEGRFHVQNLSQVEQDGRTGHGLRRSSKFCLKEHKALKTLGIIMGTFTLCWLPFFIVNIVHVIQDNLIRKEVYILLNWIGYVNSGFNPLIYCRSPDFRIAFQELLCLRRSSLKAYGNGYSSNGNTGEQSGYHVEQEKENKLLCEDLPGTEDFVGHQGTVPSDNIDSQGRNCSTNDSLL
Sequence of Sodium-dependent dopamine transporter (Q01959 whole entry): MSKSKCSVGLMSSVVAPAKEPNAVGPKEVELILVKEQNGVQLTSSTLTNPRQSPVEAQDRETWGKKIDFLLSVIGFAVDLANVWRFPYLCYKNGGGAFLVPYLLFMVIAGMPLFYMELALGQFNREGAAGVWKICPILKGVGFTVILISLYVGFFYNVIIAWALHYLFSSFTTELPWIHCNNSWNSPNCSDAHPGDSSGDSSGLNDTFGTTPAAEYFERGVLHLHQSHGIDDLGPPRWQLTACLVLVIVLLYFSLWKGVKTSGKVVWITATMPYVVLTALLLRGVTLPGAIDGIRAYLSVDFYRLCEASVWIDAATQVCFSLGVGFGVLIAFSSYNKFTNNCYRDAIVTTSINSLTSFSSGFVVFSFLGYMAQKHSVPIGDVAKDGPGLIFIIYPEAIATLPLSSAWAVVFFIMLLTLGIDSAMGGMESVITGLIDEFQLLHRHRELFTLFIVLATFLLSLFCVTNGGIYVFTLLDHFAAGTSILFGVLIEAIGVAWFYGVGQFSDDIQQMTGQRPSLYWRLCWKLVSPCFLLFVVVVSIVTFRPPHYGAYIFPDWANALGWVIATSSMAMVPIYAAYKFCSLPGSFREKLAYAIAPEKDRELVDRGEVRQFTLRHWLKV
Sequence of Sodium-dependent noradrenaline transporter (P23975 whole entry): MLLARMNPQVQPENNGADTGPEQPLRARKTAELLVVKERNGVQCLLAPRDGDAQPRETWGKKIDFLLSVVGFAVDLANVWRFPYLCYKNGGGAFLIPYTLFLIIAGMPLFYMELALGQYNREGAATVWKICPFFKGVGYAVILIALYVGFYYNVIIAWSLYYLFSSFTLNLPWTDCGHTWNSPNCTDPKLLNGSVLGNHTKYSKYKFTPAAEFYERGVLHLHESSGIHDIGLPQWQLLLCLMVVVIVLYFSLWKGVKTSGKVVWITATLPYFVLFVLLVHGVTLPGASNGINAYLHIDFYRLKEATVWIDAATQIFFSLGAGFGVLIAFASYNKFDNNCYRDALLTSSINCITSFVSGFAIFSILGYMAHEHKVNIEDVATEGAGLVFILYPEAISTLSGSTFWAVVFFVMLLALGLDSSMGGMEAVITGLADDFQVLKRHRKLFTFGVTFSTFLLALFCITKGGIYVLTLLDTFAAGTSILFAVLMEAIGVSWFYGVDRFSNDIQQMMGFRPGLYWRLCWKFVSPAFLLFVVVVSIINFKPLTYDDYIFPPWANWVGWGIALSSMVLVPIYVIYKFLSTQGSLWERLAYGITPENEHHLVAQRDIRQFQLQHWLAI

Row | SMILES | AC50 [1] [µM] | AC50 [2] [µM] | AC50 (Vasopressin V1a receptor) [µM] | AC50 [3] [µM] | AC50 [4] [µM] | AC50 (Thromboxane A2 receptor) [µM] | AC50 [5] | AC50 [6] [µM] | AC50 [7] [µM] | AC50 [8] [µM] | AC50 (Glucocorticoid receptor) [µM] | AC50 [9] [µM]
1 | CC(C)N(CCCCOCC(=O)O)c1cnc(-c2ccccc2)c(-c2ccccc2)n1 | > 30 | > 3 | > 30 | > 30 | > 30 | 28 | > 30 µM | > 30 | > 30 | > 30 | > 30 | > 30
2 | C[N+]12CCC(CC1)C(OC(=O)C(O)(c1ccccc1)c1ccccc1)C2 (stereo unspecified) | > 30 | > 30 | > 30 | – | – | > 30 | > 30 µM | > 30 | > 30 | – | > 30 | > 30
3 | O=C(CCCN1CCC(O)(c2ccc(Br)cc2)CC1)c1ccc(F)cc1 [BROMPERIDOL] | – | > 30 | > 30 | > 30 | > 30 | > 30 | > 30 µM | 6.9 | – | > 30 | > 30 | > 30
4 | COc1cc(N)c(Cl)cc1C(=O)NC1CCN(CCCOc2ccc(F)cc2)CC1OC (stereo unspecified) [CISAPRIDE] | > 30 | > 30 | > 30 | > 10 | > 10 | 22.9 | – | > 30 | > 30 | > 30 | > 30 | > 10
5 | CC(CN(C)C)C(C)(O)Cc1ccc(Cl)cc1 (stereo unspecified) [CLOBUTINOL] | > 30 | > 30 | – | > 10 | > 10 | > 30 | > 10 µM | > 30 | > 30 | > 30 | > 30 | > 30
6 | CCN1CC(CCN2CCOCC2)C(c2ccccc2)(c2ccccc2)C1=O (stereo unspecified) [DOXAPRAM] | > 30 | > 30 | – | > 30 | > 30 | > 30 | > 30 µM | > 30 | > 30 | > 30 | > 30 | > 30
7 | CCc1cc2c(s1)-n1c(C)nnc1CN=C2c1ccccc1Cl [ETIZOLAM] | > 30 | > 30 | > 30 | > 30 | – | > 30 | > 30 µM | > 30 | > 30 | > 30 | > 30 | > 30
8 | CN1CCN=C(c2ccccc2)c2cc(Cl)ccc21 [MEDAZEPAM] | > 30 | > 30 | > 30 | > 30 | > 30 | > 30 | > 30 µM | > 30 | 22 | – | > 30 | > 30
9 | C[C@]12C/C(=C/O)C(=O)C[C@@H]1CC[C@@H]1[C@@H]2CC[C@@]2(C)[C@H]1CC[C@]2(C)O [OXYMETHOLONE] | > 30 | > 30 | – | > 30 | > 30 | > 30 | > 30 µM | > 30 | > 30 | – | 21 | > 30
10 | Fc1ccc([C@@H]2CCNC[C@H]2COc2ccc3c(c2)OCO3)cc1 [PAROXETINE] | – | > 30 | > 10 | – | > 10 | > 30 | 9.9 µM and > 30 µM | > 30 | – | > 30 | > 30 | 9.5
11 | COc1cc(C(=O)OCc2cccc(COC(=O)c3cc(OC)c(OC)c(OC)c3)n2)cc(OC)c1OC [PIROZADIL] | > 30 | > 30 | > 30 | > 30 | > 30 | > 30 | > 30 µM | > 30 | > 30 | > 30 | > 30 | –
12 | CCN1CCCC1CNC(=O)c1cc(S(=O)(=O)CC)ccc1OC (stereo unspecified) [SULTOPRIDE] | > 30 | > 30 | > 30 | > 30 | > 30 | > 30 | > 30 µM | > 30 | > 30 | – | > 30 | > 30
13 | C=CCN1CCc2nc(N)sc2CC1 [TALIPEXOLE] | > 30 | > 30 | > 30 | > 30 | > 30 | > 30 | > 30 µM | > 30 | > 30 | > 30 | > 30 | –
14 | CCOC(=O)c1ccc(C#Cc2ccc3c(c2)C(C)(C)CCS3)nc1 [TAZAROTENE] | > 30 | > 30 | – | > 10 | > 10 | > 30 | > 10 µM | > 30 | > 30 | > 30 | > 30 | > 10
15 | COc1cc(C(=O)NC2CCCNC2)cc(OC)c1OC (stereo unspecified) [TROXIPIDE] | > 30 | > 30 | – | > 30 | > 30 | > 30 | > 30 µM | > 30 | > 30 | > 30 | > 30 | > 30
16 | CC(C(=O)O)c1ccc2c(c1)CC(=O)c1ccccc1S2 (stereo unspecified) [ZALTOPROFEN] | > 30 | > 30 | > 30 | > 30 | – | > 30 | > 30 µM | > 30 | > 30 | > 30 | > 30 | > 30
